In patent publication US20220378802A1, “TREATMENT OF ALCOHOLIC HEPATITIS” (Durect Corporation, priority 2019, published 2022):
“Also recorded” adds a separate entry of the source.

What was measured:
Type in all cases: in vivo, human
[1] = Pharmacokinetics of 25HC3S in alcoholic hepatitis patients (Phase 2a, IV infusion); conditions: for PK parameters, moderate versus severe AH groups: comparison at the same dose; for half-life / clearance / Tmax / AUC(0-inf) / Cmax: human, plasma
Description: All patients received IV infused 25HC3S (at 30, 90, or 150 mg) on Day 1 and Day 4 (if still hospitalized), and were followed for 28-days. The final enrollment was 19 patients comprised of: 8 patients (4 moderate and 4 severe) dosed at 30 mg, 7 patients (3 moderate and 4 severe) dosed at 90 mg, and 4 patients (4 severe) dosed at 150 mg. • Study Drug A 25HC3S sodium salt solution contained: • 30 mg/mL 25HC3S sodium salt; • 240 mg/mL hydroxypropyl-beta-cyclodextrin; and • 50 mmole phosphate buffer • The 25HC3S sodium salt solution was diluted in 100 mL 5% dextrose or 0.9% sodium chloride infusion solution: • Dose 1: 30 mg of 25HC3S sodium salt in 100 mL 5% dextrose or 0.9% sodium chloride • Dose 2: 90 mg of 25HC3S sodium salt in 100 mL 5% dextrose or 0.9% sodium chloride • Dose 3: 150 mg of 25HC3S sodium salt in 100 mL 5% dextrose or 0.9% sodium chloride • 25HC3S sodium salt was administered by slow intravenous infusion over 2 hrs (50 mL/h) until the entire dose is given at Day 1 and Day 4. If a patient met the hospital discharge criteria prior to the second dose, the patient received only one dose instead of two doses. • Study Procedure The study was conducted in two parts. Part A included patients with MELD scores of 11-20 (moderate AH patients), and Part B included patients with MELD of scores 21-30. The doses of 25HC3S sodium salt administered were 30 mg and 90 mg for Part A and 30 mg, 90 mg and 150 mg for Part B, with 4 patients per dose group per Part (except for only 3 patients in the 90 mg cohort of Part A). All patients were followed to Day 28. • The study started in 4 moderate AH patients (Part A) at 30 mg dose level. After completing the dosing, a Dose Escalation Committee (DEC) reviewed safety, tolerability and pharmacokinetic (PK) data from all 4 patients and determined that it was safe to move forward to dose 4 severe AH patients (Part B) at the same dose level, 30 mg, as well as escalating the dose level to 90 mg in moderate patients (Part A). The same dose escalation procedure was then conducted in Part B until all 4 patients received 150 mg doses. • A flow diagram of the study is depicted in FIG. 2. Each dose cohort enrolled up to 4 subjects. Study subjects received up to 2 doses of 25HC3S sodium salt. The first dose was administered on Day 1 and, if still hospitalized, the second dose was administered on Day 4. A pharmacokinetic (PK) sample was collected at: Time 0 (pre-dose), 1 hour post-dose initiation, 2 hours (end of infusion), 3 hours post-dose initiation, 4 hours post-dose initiation, 8 hours post-dose initiation, 12 hours post-dose initiation, 24-hours post-dose initiation and 50 hours post-dose initiation. • Evaluation: Assessment of Pharmacodynamic (PD) Signals: • Change in Lille score, MELD score, biochemistry (such as bilirubin) • Method and Timing • Lille score was calculated at Day 7 • MELD score was calculated at Screening, Day 1 (pre-dose), Day 7 and Day 28 • Biochemistry and all safety lab parameters were collected at Screening, Day 1 and Day 4 at pre-dose, Day 1 and Day 4 at 12 hrs after dose completion/end of infusion, Day 2, Day 7, Day 28, and if hospitalized on Days 3, 4, 5, and 6. • Assessment of Safety Signals: • Safety was determined based on clinical and laboratory monitoring. • Assessment of PK: • Plasma concentration data of 25HC3S from each patient were used to calculate relevant PK parameters determined using a standard linear/log-trapezoidal rule non-compartmental method with an appropriate PK data analysis program. • The time points for PK sample collection were (after Dose 1 only): 0 (pre-dose), 1 hr post-dose initiation, 2 hrs (end of infusion), 3, 4, 8, 12, 24 hrs post-dose

[2] = tested on: patients with alcoholic hepatitis; experiment: Safety and tolerability in Phase 2a trial; conditions: all AH patients
Description: All patients received IV infused 25HC3S (at 30, 90, or 150 mg) on Day 1 and Day 4 (if still hospitalized), and were followed for 28-days. The final enrollment was 19 patients comprised of: 8 patients (4 moderate and 4 severe) dosed at 30 mg, 7 patients (3 moderate and 4 severe) dosed at 90 mg, and 4 patients (4 severe) dosed at 150 mg. • Study Drug A 25HC3S sodium salt solution contained: • 30 mg/mL 25HC3S sodium salt; • 240 mg/mL hydroxypropyl-beta-cyclodextrin; and • 50 mmole phosphate buffer • The 25HC3S sodium salt solution was diluted in 100 mL 5% dextrose or 0.9% sodium chloride infusion solution: • Dose 1: 30 mg of 25HC3S sodium salt in 100 mL 5% dextrose or 0.9% sodium chloride • Dose 2: 90 mg of 25HC3S sodium salt in 100 mL 5% dextrose or 0.9% sodium chloride • Dose 3: 150 mg of 25HC3S sodium salt in 100 mL 5% dextrose or 0.9% sodium chloride • 25HC3S sodium salt was administered by slow intravenous infusion over 2 hrs (50 mL/h) until the entire dose is given at Day 1 and Day 4. If a patient met the hospital discharge criteria prior to the second dose, the patient received only one dose instead of two doses. • Study Procedure The study was conducted in two parts. Part A included patients with MELD scores of 11-20 (moderate AH patients), and Part B included patients with MELD of scores 21-30. The doses of 25HC3S sodium salt administered were 30 mg and 90 mg for Part A and 30 mg, 90 mg and 150 mg for Part B, with 4 patients per dose group per Part (except for only 3 patients in the 90 mg cohort of Part A). All patients were followed to Day 28. • The study started in 4 moderate AH patients (Part A) at 30 mg dose level. After completing the dosing, a Dose Escalation Committee (DEC) reviewed safety, tolerability and pharmacokinetic (PK) data from all 4 patients and determined that it was safe to move forward to dose 4 severe AH patients (Part B) at the same dose level, 30 mg, as well as escalating the dose level to 90 mg in moderate patients (Part A). […]

[3] = Pharmacokinetics of 25HC3S in healthy subjects (earlier study); conditions: Healthy subjects (N = 5), single dose of 150 mg
Text: The clearance of 25HC3S sodium was decreased by 80% in AH patients as compared to that in healthy subjects from an earlier study. A comparison of the pharmacokinetic parameters of 25HC3S administered to healthy subjects versus subjects with alcoholic hepatitis is summarized in the following Table. A comparison of the plasma concentration of 25HC3S administered to healthy subjects versus subjects with alcoholic hepatitis is depicted in FIG. 5.

[4] = AH vs healthy subjects, 150 mg, ↑
[5] = AH vs healthy subjects, 150 mg, ↓
[6] = iv, 30 mg, Moderate AH, cohort 1A, 30 mg IV infusion, N=3
[7] = iv, 30 mg, Severe AH, cohort 1B, 30 mg IV infusion, N=4
[8] = iv, 90 mg, Moderate AH, cohort 2A, 90 mg IV infusion, N=3
[9] = iv, 90 mg, Severe AH, cohort 2B, 90 mg IV infusion, N=4
[10] = iv, 150 mg, Severe AH, cohort 3B, 150 mg IV infusion, N=4
[11] = same dose level, single dose of 150 mg

C[C@H](CCCC(C)(C)O)[C@H]1CC[C@H]2[C@@H]3CC=C4C[C@@H](OS(=O)(=O)O)CC[C@]4(C)[C@H]3CC[C@]12C [25HC3S, 5-cholesten-3,25-diol, 3-sulfate]
drug exposure (AUC and Cmax) versus dose ([1]; AH patients, 30, 90, 150 mg): dose proportional
Time to maximum drug concentrations (Tmax) ([1]; AH patients, 2 hour IV infusion): at the end of 2 hour infusion
Fold Change in PK: AUCinf [1, 4]: ↑ ~5×
Fold Change in PK: Cmax [1, 4]: ↑ 2×
Fold Change in PK: T½ [1, 4]: ↑ 2×
Fold Change in PK: CL [1, 5]: ↓ 0.25×
Fold Change in PK: V [1, 5]: ↓ 0.5×
V ([1]; Moderate AH, cohort 1A, 30 mg IV infusion, N=3): 24.8 (1.6) L
V ([1]; Moderate AH, cohort 2A, 90 mg IV infusion, N=3): 25.8 (10.5) L
V ([1]; Severe AH, cohort 1B, 30 mg IV infusion, N=4): 26.1 (4.9) L
V ([1]; Severe AH, cohort 2B, 90 mg IV infusion, N=4): 35.3 (10.8) L
V ([1]; Severe AH, cohort 3B, 150 mg IV infusion, N=4): 27.8 (5.9) L
PK parameters, moderate versus severe AH groups [1]: uninfluenced by the severity of the disease; also recorded: similar
PK parameters, moderate versus severe AH groups ([1]; listed as 25HC3S sodium): similar
systemic clearance, fold lower in AH patients compared to healthy subjects ([1]; for a given dose): about 5 fold
decrease of clearance in AH patients compared to healthy subjects ([1]; healthy subjects from an earlier study): 80%
half-life ([1]; intravenous, AH patients, range over groups, read-out: half-life (t1/2)): 4 to 6 h
clearance ([1]; intravenous, AH patients, read-out: Mean clearance): 83.3 to 117 mL/min
Tmax ([1]; iv, 30 mg, Moderate AH, cohort 1A, 30 mg IV infusion over 2 h, after Dose 1, N=3): 2.2 h
AUC(0-inf) [1, 6]: 6540 ng·h/mL
Cmax [1, 6]: 1280 ng/mL
clearance ([1]; iv, 30 mg, Moderate AH, cohort 1A, 30 mg IV infusion, N=3, read-out: CL (converted)): 98.3 mL/min
half-life ([1]; iv, 30 mg, Moderate AH, cohort 1A, 30 mg IV infusion, N=3, read-out: T½ (converted)): 3.7 h
AUC(0-inf) [1, 7]: 7720 ng·h/mL
Cmax [1, 7]: 1340 ng/mL
Tmax [1, 7]: 1.8 h
clearance ([1]; iv, 30 mg, Severe AH, cohort 1B, 30 mg IV infusion, N=4, read-out: CL (converted)): 68.3 mL/min
half-life ([1]; iv, 30 mg, Severe AH, cohort 1B, 30 mg IV infusion, N=4, read-out: T½ (converted)): 1.8 h
AUC(0-inf) [1, 8]: 14300 ng·h/mL
Cmax [1, 8]: 3630 ng/mL
Tmax [1, 8]: 2 h
clearance ([1]; iv, 90 mg, Moderate AH, cohort 2A, 90 mg IV infusion, N=3, read-out: CL (converted)): 110 mL/min
half-life ([1]; iv, 90 mg, Moderate AH, cohort 2A, 90 mg IV infusion, N=3, read-out: T½ (converted)): 2.7 h
AUC(0-inf) [1, 9]: 20400 ng·h/mL
Cmax [1, 9]: 3290 ng/mL
Tmax [1, 9]: 2.3 h
clearance ([1]; iv, 90 mg, Severe AH, cohort 2B, 90 mg IV infusion, N=4, read-out: CL (converted)): 91.7 mL/min
half-life ([1]; iv, 90 mg, Severe AH, cohort 2B, 90 mg IV infusion, N=4, read-out: T½ (converted)): 5.1 h
AUC(0-inf) [1, 10]: 27100 ng·h/mL
Cmax [1, 10]: 6820 ng/mL
Tmax [1, 10]: 2.1 h
clearance ([1]; iv, 150 mg, Severe AH, cohort 3B, 150 mg IV infusion, N=4, read-out: CL (converted)): 96.7 mL/min
half-life ([1]; iv, 150 mg, Severe AH, cohort 3B, 150 mg IV infusion, N=4, read-out: T½ (converted)): 3.4 h
increase in AUC in AH patients compared to healthy subjects [1, 11]: about 5 fold
increase in Cmax in AH patients compared to healthy subjects [1, 11]: 2 fold
safety / tolerability ([2]; 30, 90, 150 mg): safe and well tolerated
serious adverse events ([2]; 30, 90, 150 mg): no drug-related serious adverse events; also recorded: no treatment emergent serious adverse events; also recorded: no serious adverse effects related to 25HC3S
discontinuations, early withdrawal or termination due to adverse effects [2]: no discontinuations, early withdrawal or termination
V [3]: 55.0 (4.3) L
AUC(0-inf) ([3]; human, plasma): 6190 ng·h/mL
Cmax ([3]; human, plasma): 3100 ng/mL
clearance ([3]; human, plasma): 408 mL/min
half-life ([3]; human, plasma, read-out: T½ (converted)): 1.6 h
